Test results from US4107188A, “Pregnanes” (Hoffmann-La Roche Inc., priority 1977, dated 1978).

Experiments:
[1] = target: T1, rat pancreatic lipase (Rattus norvegicus, UniProt P27657); assay: Inhibition of rat pancreatic lipase activity in vitro; assay type: biochemical; conditions: 14C-triolein emulsion, pH 8.6, 20 min. at 37° C
T1 sequence (P27657 17-465): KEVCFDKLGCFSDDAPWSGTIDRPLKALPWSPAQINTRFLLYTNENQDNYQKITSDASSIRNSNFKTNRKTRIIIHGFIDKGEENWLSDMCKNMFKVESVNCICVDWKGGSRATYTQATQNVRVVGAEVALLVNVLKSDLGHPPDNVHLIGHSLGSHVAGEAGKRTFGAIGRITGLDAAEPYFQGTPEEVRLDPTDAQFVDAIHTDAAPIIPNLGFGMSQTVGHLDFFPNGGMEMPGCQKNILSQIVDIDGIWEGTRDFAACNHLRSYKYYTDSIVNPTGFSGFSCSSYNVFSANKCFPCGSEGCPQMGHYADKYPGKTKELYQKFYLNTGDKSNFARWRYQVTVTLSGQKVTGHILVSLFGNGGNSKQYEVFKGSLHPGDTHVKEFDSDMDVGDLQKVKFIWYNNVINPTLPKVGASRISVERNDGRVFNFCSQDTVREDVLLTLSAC
Procedure: Dietary long-chain triglycerides must be hydrolyzed by pancreatic lipase in the duodenum before absorption can occur. […] The capacity of compounds of formula I to inhibit rat pancreatic lipase in vitro is seen by the action of the following compounds:
The ability of compounds to inhibit rat pancreatic lipase is determined by analyzing the nmoles of free fatty acid [oleic acid] released from [^14 C]-triolein. Compounds of A and B are added to an emulsion consisting of: 200,000 dmp ^14 C-triolein, 7.5 mg triolein, 0.75 mg sodium taurocholate, 15 mg bovine serum albumin and 0.9 ml 0.2 M tris-HCl - 0.15 M NaCl, pH 8.6, per assay. Water and/or pancreatic lipase is added to make an assay volume of 1.0 ml. The emulsion is incubated for 20 min. at 37° C in a shaking water bath. The reaction is stopped by the addition of isopropanol; H2 SO4 (40:1). The lipids are extracted twice with 3 ml volumes of hexane. The liberated fatty acids are extracted with 2 ml of 0.1 N aqueous KOH in 50% methanol. A 1 ml aliquot of the KOH layer is paced in a scintillation vial with 10 ml of 2,5-bis-2-(5-tertiarybutyl benzoxazolyl)thiophene. The radioactivity is determined by a scintillation counter. Data are expressed as nmoles free fatty acid [oleic acid] releated.

[2] = 4-14C-cholesterol appearance in thoracic duct lymph of rats after oral administration; assay type: in vivo, female albino rats (Charles River); conditions: 100 mg orally, female albino rats, vs Na-TC control
Procedure: The lowering of the cholesterol levels in mammals by the administration of the compound of formula I-B can be seen from the fact that when 100 mg of 7-(3alpha, 12alpha-dihydroxy-5beta-pregnane-20-yl)-3,5-heptadienoic acid was administered orally to female albino rats, the cholesterol level in the lymph was decreased after administration by 60% over the first 8 hours and 91% over the next 9 to 24 hr. period after administration as compared to the control. In this procedure, female albino rats (Charles River), weighing 300 ± 10 g were kept on a Purina chow diet ad libitum until the time of operation. […] This preparation enabled the production of lymph at a constant rate, the infusion of a bile salt, and the simultaneous collection of bile. All animals received, after operation, a continuous duodenal infusion of sodium taurocholate (Na-TC) in 0.85% NaCl. One day after operation, the rats were given, by stomach intubation, an emulsion containing about 4% triolein, 20 μC of 4-^14 C-cholesterol (Specific Activity 61.7 mC/mM, 159 μ C/mg), 2 mg of cholesterol, in addition to protein, carbohydrate, and saline. Both the Na-TC and the cholesterol carrier employed gave a single spot on either thin layer or glass fiber chromatograph so no further purification was attempted. […] An aliquot of the lipid extract was placed on a small piece of glass fiber paper and counted. […]

Row | SMILES | Ki [1] [mM] | decrease of cholesterol level in the lymph as compared to the control ([2]; 9 to 24 hr. period after administration) [%] | decrease of cholesterol level in the lymph as compared to the control ([2]; over the first 8 hours after administration) [%]
1 | C[C@H](C/C=C/C=C/CC(=O)O)[C@H]1CC[C@H]2[C@@H]3CC[C@@H]4C[C@H](O)CC[C@]4(C)[C@H]3C[C@H](O)[C@]12C [Compound A, 7(3α,12α-dihydroxy-5β-pregnane-20-yl)-3,5-heptadienoic acid] | 1 | 91 | 60
2 | CC(CCCCC(=O)O)[C@H]1CC[C@H]2[C@@H]3CC[C@@H]4C[C@H](O)CC[C@]4(C)[C@H]3C[C@H](O)[C@]12C (stereo partly drawn) [Compound B, 5-(3α,12α-dihydroxy-5βpregnane-20-yl)pentanoic acid] | 9 |  | 
